The values that follow come from patent publication US20220304946A1 (priority 2021, published 2022).

Entries after “also recorded” stand apart in the source; their conditions may differ. Like-named read-outs stand apart in the source and are kept apart here. Where a SMILES comes first, the peptide text is derived from it. Bridges are numbered along the chain shown (N, C = ends). [ ]: non-standard residue; d: D form. The star is where a group is joined. Ileψ(thiazoline)Cys = CC[C@H](C)[C@H](N)C1=N[C@H](C(=O)*)CS1; dOrn = NCCC[C@@H](N)C(=O)O

Test [1] deals with prolyl endopeptidase (PEP) (UniProt P27028). Nature of the test: PEP inhibitory activity assay (modified Yoshimoto et al. method, Z-Gly-Pro-pNA substrate). The format is biochemical. How it is done: PEP inhibitory activity was evaluated with minor modification of the Yoshimoto et al. method. Briefly, 150 μL of sodium phosphate buffer (50 mM, pH 7.0), and 10 μL of the test compound (0.5 mM in DMSO) were added into a 96-well plate, followed by adding 20 μL solution containing 0.02 units of PEP enzyme. In the Blank reaction, 20 μL of DMSO was added instead of the test compound, while bacitracin (0.5 mM) was used as the positive control. The incubation of the reaction mixture was carried out for 15 min at 30° C. after which a pre-read was taken at 410 nm. Next, 0.4 mM solution of Z-Gly-Pro-pNA was formed in aqueous 1,4-dioxane (40%), followed by taking the optical density (O.D.) of the reaction mixture at a wavelength of 410 nm for 40 min using a 96-well plate reader (SpectraMax-384, Molecular Devices, CA, USA).
prolyl endopeptidase (PEP), sequence (P27028 whole entry): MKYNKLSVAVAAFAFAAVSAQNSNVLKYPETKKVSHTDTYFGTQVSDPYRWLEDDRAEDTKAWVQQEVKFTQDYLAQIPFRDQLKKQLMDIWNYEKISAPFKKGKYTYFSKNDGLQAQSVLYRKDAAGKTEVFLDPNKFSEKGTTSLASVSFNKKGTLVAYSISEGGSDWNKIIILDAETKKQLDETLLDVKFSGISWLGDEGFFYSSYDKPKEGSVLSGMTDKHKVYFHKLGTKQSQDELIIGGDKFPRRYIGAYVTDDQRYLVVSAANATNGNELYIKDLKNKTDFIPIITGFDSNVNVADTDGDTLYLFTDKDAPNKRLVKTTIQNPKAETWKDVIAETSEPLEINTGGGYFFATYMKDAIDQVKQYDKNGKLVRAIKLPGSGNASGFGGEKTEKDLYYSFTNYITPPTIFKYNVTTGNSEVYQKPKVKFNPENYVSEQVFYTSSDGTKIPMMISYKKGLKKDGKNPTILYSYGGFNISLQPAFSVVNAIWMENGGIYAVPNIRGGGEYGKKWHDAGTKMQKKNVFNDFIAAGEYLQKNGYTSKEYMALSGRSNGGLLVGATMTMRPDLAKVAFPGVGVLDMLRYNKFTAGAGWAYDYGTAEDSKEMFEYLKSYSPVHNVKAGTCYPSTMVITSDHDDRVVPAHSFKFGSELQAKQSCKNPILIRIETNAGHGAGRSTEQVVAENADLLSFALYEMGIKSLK
Each reaction was repeated thrice and the differences in the results of each experiment were collectively expressed as the standard error of the mean (SEM).
% Inhibition=100−(O.D. test compound/O.D. Control)×100

Test [2] shares this target. Nature of the test: Kinetic assay of PEP inhibition (Lineweaver-Burk and Dixon plots). The format is biochemical. As to the method:
That in which way it inhibits the PEP catalytic activity i.e. competitive inhibition, non-competitive inhibition, mixed or uncompetitive inhibition. […] The reaction was started post adding four various concentrations of Z-Gly-Pro-pNA (0.2 mM to 0.5 mM). The PEP enzymatic catalysis was assessed at 410 nm via a 96-well plate reader.
Next, using the obtained O.D. results, the Lineweaver-Burk and Dixon plot was generated.
Grafit version-7 (Erithacus Software Limited, UK) was employed for the Kinetic studies.

Usually IC50 stands for the concentration at which inhibition is half-maximal. Usually Ki stands for a measure of affinity in units of concentration, obtained from inhibition or displacement.

Take `CC[C@H](C)[C@H](N)C1=N[C@H](C(=O)N[C@@H](CC(C)C)C(=O)N[C@H](CCC(=O)O)C(=O)N[C@H](C(=O)N[C@H]2CCCCNC(=O)[C@H](CC(N)=O)NC(=O)[C@@H](CC(=O)O)NC(=O)[C@H](Cc3cnc[nH]3)NC(=O)[C@@H](Cc3ccccc3)NC(=O)[C@H]([C@@H](C)CC)NC(=O)[C@@H](CCCN)NC2=O)[C@@H](C)CC)CS1` [bacitracin, reference compound] ({Ileψ(thiazoline)Cys}-L[dE]IK[dOrn]I[dF]H[dD]N; lactam 4-C): the IC50 in test [1] (mean ± SEM, repeated thrice; 30° C., pH 7.0; read-out: PEP inhibitory activity IC50) worked out at 114 ± 1.2 µM.

Regarding `C/C=C/c1ccc(OC)cc1` [trans-anethole, (E)-1-Methoxy-4-(1-propenyl) benzene], the IC50 in test [1] (read-out: PEP inhibitory activity IC50; mean ± SEM, repeated thrice; 30° C., pH 7.0) worked out at 5.7 ± 1.2 µM. In test [2] (Lineweaver-Burk / Dixon plot), the “type of PEP inhibition” value is “competitively inhibited; also recorded: competitive”. For the same compound, the Ki in test [2] (read-out: Ki value, Lineweaver-Burk plot, reconfirmed by Dixon plot) was found to be 5.656 ± 0.03 µM.
